According to PMC9705864, “SCO6992, a Protein with β-Glucuronidase Activity, Complements a Mutation at the absR Locus and Promotes Antibiotic Biosynthesis in Streptomyces coelicolor” (Journal of Microbiology and Biotechnology, 2021):

What was measured:
[1] = molecular target: T1, MBP-SCO6992 (rSCO6992; ORF-1; absR1) (Streptomyces coelicolor, UniProt Q7AKD9); assay: p-nitrophenol release, absorbance at […] nm; format: biochemical; settings: 1.67 mM substrate, 83 mM acetate pH 4.5, 37°C, 1 h; without added Zn2+
T1 construct: N-terminal MBP fusion (pMAL-c2x) kept, about 82 kDa; E. coli JM109
T1 sequence (Q7AKD9 1-359): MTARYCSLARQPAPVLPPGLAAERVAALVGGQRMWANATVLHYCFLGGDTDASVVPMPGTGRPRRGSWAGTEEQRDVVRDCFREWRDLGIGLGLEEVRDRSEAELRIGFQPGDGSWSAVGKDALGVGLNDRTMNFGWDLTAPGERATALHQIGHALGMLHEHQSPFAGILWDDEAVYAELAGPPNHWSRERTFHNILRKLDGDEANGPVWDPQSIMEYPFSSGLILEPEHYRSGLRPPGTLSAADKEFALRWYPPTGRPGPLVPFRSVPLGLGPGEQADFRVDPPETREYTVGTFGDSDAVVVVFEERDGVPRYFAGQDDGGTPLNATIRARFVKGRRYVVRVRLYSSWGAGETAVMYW

[2] = molecular target: T1, MBP-SCO6992 (rSCO6992; ORF-1; absR1); assay: native PAGE zymogram with Fast Garnet; format: biochemical; settings: 0.2 M sodium acetate pH 5.2

| SMILES | p-nitrophenol release, absorbance at 415 nm [1] | native PAGE zymogram with Fast Garnet [2] |
| --- | --- | --- |
| O=C(O)[C@H]1O[C@@H](Oc2ccc([N+](=O)[O-])cc2)[C@H](O)[C@@H](O)[C@@H]1O [p-nitrophenyl-β-D-glucuronide] | when measuring β-glucuronidase activity using p-nitrophenyl-β-D-glucuronide as substrate, a strong activity was detected |  |
| COc1ccccc1NC(=O)c1cc2cc(Br)ccc2cc1O[C@@H]1O[C@H](C(=O)O)[C@@H](O)[C@H](O)[C@H]1O [naphthol AS-BI-β-D-glucuronide] |  | purified MBP-SCO6992 protein had β-glucuronidase activity on an artificial substrate such as AS-BI-β-D-glucuronide |
